Reference: patent publication US8017612B2, “Piperazine compound and use thereof as a HCV polymerase inhibitor” (priority 2006, dated 2011)
pIC50: −log10 of the molar value.

Columns and labels:
[1] = target: T1, HCV polymerase (NS5B) type 1b (Hepatitis C virus genotype 1b, UniProt P26663); test: Assay of enzyme (HCV polymerase) inhibitory activity, type 1b enzyme; format: biochemical, HCV BK strain (type 1b); settings: HCV polymerase inhibitory activity (IC50), 1b, type 1b enzyme 0.5 μg/ml, 25° C., 60 min
T1 construct: a region encoding NS5B (J Virol 1991 March, 65(3), 1105-13, 544 amino acids after deletion of 47 amino acids on the C-terminal); 6xHis (C); made in house; host or cells: Escherichia coli
Procedure, shortened: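 IC50 derived from [3H]UTP incorporation into TCA-insoluble RNA, compared with and without test compound. Reaction (25 °C, 60 min, Tris pH 7.5, 5 mM MgCl2): E. coli-expressed 1b NS5B Δ47 with His tag at 0.5 μg/ml, 5 μg/ml run-off substrate RNA, ATP/GTP/CTP 50 μM, UTP 2 μM.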

[2] = target: T2, HCV polymerase (NS5B) type 1a (Hepatitis C virus genotype 1a, UniProt P26664); test: Assay of enzyme (HCV polymerase) inhibitory activity, type 1a enzyme; format: biochemical, HCV type 1a (cloned from the blood of patients); settings: HCV polymerase inhibitory activity (IC50), 1a, type 1a enzyme 1.5 μg/ml, 25° C., 60 min
T2 construct: made in house; host or cells: Escherichia coli (by the 'similar method' of the 1b enzyme)
Procedure, shortened: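 Reactions ran 60 min at 25° C in 20 mM Tris-HCl pH 7.5, 5 mM MgCl2, 50 mM NaCl, holding genotype 1a NS5B (1.5 μg/ml, Δ47 C-terminus, 6His), substrate RNA 5 μg/ml, UTP 2 μM with tritiated UTP and other NTPs 50 μM. IC50 derived from incorporated radiolabel in filter-trapped RNA relative to uninhibited reaction.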

CCCc1ccc(CNC(=O)[C@H]2CN(c3cnc(N)cn3)CCN2S(=O)(=O)c2ccc(OC(F)(F)F)cc2)cc1 [Example 530, (R)-5′-amino-4-(4-trifluoromethoxy-benzenesulfonyl)-3,4,5,6-tetrahydro-2H-[1,2′]bipyrazinyl-3-carboxylic acid 4-propyl-benzylamide]
pIC50 [1]: > 7.00 | pIC50 [2]: 6.00 to 7.00

CCCc1ccc(CNC(=O)[C@H]2CN(c3nc(C)c(CN4CCCC4)s3)CCN2S(=O)(=O)c2ccc(OC(F)(F)F)cc2)cc1 [Example 531, (R)-4-(4-methyl-5-pyrrolidin-1-ylmethyl-thiazol-2-yl)-1-(4-trifluoromethoxy-benzenesulfonyl)-piperazine-2-carboxylic acid 4-propyl-benzylamide]
pIC50 [1]: > 7.00 | pIC50 [2]: > 7.00

CCOC(=O)Cn1nnc(CC(=O)N2CCN(S(=O)(=O)c3ccc(OC(F)(F)F)cc3)[C@@H](C(=O)NCc3ccc(C(F)(F)CC)cc3)C2)n1 [Example 532, (5-{2-[(R)-3-[4-(1,1-difluoro-propyl)-benzylcarbamoyl]-4-(4-trifluoromethoxy-benzenesulfonyl)-piperazin-1-yl]-2-oxo-ethyl}-tetrazol-2-yl)-acetic acid ethyl ester]
pIC50 [1]: > 7.00 | pIC50 [2]: > 7.00

CCOC(=O)Cn1nnnc1CC(=O)N1CCN(S(=O)(=O)c2ccc(OC(F)(F)F)cc2)[C@@H](C(=O)NCc2ccc(C(F)(F)CC)cc2)C1 [Example 533, (5-{2-[(R)-3-[4-(1,1-difluoro-propyl)-benzylcarbamoyl]-4-(4-trifluoromethoxy-benzenesulfonyl)-piperazin-1-yl]-2-oxo-ethyl}-tetrazol-1-yl)-acetic acid ethyl ester]
pIC50 [1]: < 6.00 | pIC50 [2]: < 6.00

CCCc1ccc(CNC(=O)[C@H]2CN(c3nc4c(s3)CN(C(=O)OCc3ccccc3)CC4)CCN2S(=O)(=O)c2ccc(OC(F)(F)F)cc2)cc1 [Example 534, 2-[(R)-3-(4-propyl-benzylcarbamoyl)-4-(4-trifluoromethoxy-benzenesulfonyl)-piperazin-1-yl]-6,7-dihydro-4H-thiazolo[5,4-c]pyridine-5-carboxylic acid benzyl ester]
pIC50 [1]: > 7.00 | pIC50 [2]: > 7.00

CCCc1ccc(S(=O)(=O)N2CCN(c3nc(C(=O)O)c(CO)s3)C[C@@H]2C(=O)NCc2ccc(C(C)C)cc2)cc1 [Example 535, 5-hydroxymethyl-2-[(R)-3-(4-isopropyl-benzylcarbamoyl)-4-(4-propyl-benzenesulfonyl)-piperazin-1-yl]-thiazole-4-carboxylic acid]
pIC50 [1]: > 7.00 | pIC50 [2]: > 7.00

CCCc1ccc(CNC(=O)[C@H]2CN(c3nc(C(=O)O)c(COC)s3)CCN2S(=O)(=O)c2ccc(OC(F)(F)F)cc2)cc1 [Example 536, 5-methoxymethyl-2-[(R)-3-(4-propyl-benzylcarbamoyl)-4-(4-trifluoromethoxy-benzenesulfonyl)-piperazin-1-yl]-thiazole-4-carboxylic acid]
pIC50 [1]: > 7.00 | pIC50 [2]: 6.00 to 7.00

CCCc1ccc(CNC(=O)[C@H]2CN(c3nc(C(=O)O)c(CO)s3)CCN2S(=O)(=O)c2ccc(OC(F)(F)F)cc2)cc1 [Example 537, 5-hydroxymethyl-2-[(R)-3-(4-propyl-benzylcarbamoyl)-4-(4-trifluoromethoxy-benzenesulfonyl)-piperazin-1-yl]-thiazole-4-carboxylic acid]
pIC50 [1]: > 7.00 | pIC50 [2]: > 7.00

CCCc1ccc(CNC(=O)[C@H]2CN(c3cnc(CN(C)C)cn3)CCN2S(=O)(=O)c2ccc(CC)cc2)cc1 [Example 538, (R)-5′-dimethylaminomethyl-4-(4-ethyl-benzenesulfonyl)-3,4,5,6-tetrahydro-2H-[1,2′]bipyrazinyl-3-carboxylic acid 4-propyl-benzylamide]
pIC50 [1]: > 7.00 | pIC50 [2]: > 7.00

CCC(F)(F)c1ccc(CNC(=O)[C@H]2CN(C(=O)Nn3cnnc3)CCN2S(=O)(=O)c2ccc(OC(F)(F)F)cc2)cc1 [Example 539, (R)-4-(4-trifluoromethoxy-benzenesulfonyl)-piperazine-1,3-dicarboxylic acid 3-[4-(1,1-difluoro-propyl)-benzylamide] 1-[1,2,4]triazol-4-ylamide]
pIC50 [1]: 6.00 to 7.00 | pIC50 [2]: 6.00 to 7.00

CCC(F)(F)c1ccc(CNC(=O)[C@H]2CN(C(=O)n3cnc(N)n3)CCN2S(=O)(=O)c2ccc(OC(F)(F)F)cc2)cc1 [Example 540, (R)-4-(3-amino-[1,2,4]triazole-1-carbonyl)-1-(4-trifluoromethoxy-benzenesulfonyl)-piperazine-2-carboxylic acid 4-(1,1-difluoro-propyl)-benzylamide]
pIC50 [1]: < 6.00 | pIC50 [2]: < 6.00

CCC(F)(F)c1ccc(CNC(=O)[C@H]2CN(C(=O)Cn3nnnc3C(C)C)CCN2S(=O)(=O)c2ccc(OC(F)(F)F)cc2)cc1 [Example 541, (R)-4-[2-(5-isopropyl-tetrazol-1-yl)-acetyl]-1-(4-trifluoromethoxy-benzenesulfonyl)-piperazine-2-carboxylic acid 4-(1,1-difluoro-propyl)-benzylamide]
pIC50 [1]: 6.00 to 7.00 | pIC50 [2]: 6.00 to 7.00

CCC(F)(F)c1ccc(CNC(=O)[C@H]2CN(C(=O)Cn3nnc(C(C)C)n3)CCN2S(=O)(=O)c2ccc(OC(F)(F)F)cc2)cc1 [Example 542, (R)-4-[2-(5-isopropyl-tetrazol-2-yl)-acetyl]-1-(4-trifluoromethoxy-benzenesulfonyl)-piperazine-2-carboxylic acid 4-(1,1-difluoro-propyl)-benzylamide]
pIC50 [1]: > 7.00 | pIC50 [2]: > 7.00

CCC(F)(F)c1ccc(CNC(=O)[C@H]2CN(C(=O)Cn3nnc(CC(=O)N4CCOCC4)n3)CCN2S(=O)(=O)c2ccc(OC(F)(F)F)cc2)cc1 [Example 543, (R)-4-{2-[5-(2-morpholin-4-yl-2-oxo-ethyl)-tetrazol-2-yl]-acetyl}-1-(4-trifluoromethoxy-benzenesulfonyl)-piperazine-2-carboxylic acid 4-(1,1-difluoro-propyl)-benzylamide]
pIC50 [1]: > 7.00 | pIC50 [2]: > 7.00

CCCc1ccc(CNC(=O)[C@H]2CN(c3cnc(NS(C)(=O)=O)cn3)CCN2S(=O)(=O)c2ccc(OC(F)(F)F)cc2)cc1 [Example 544, (R)-5′-methanesulfonylamino-4-(4-trifluoromethoxy-benzenesulfonyl)-3,4,5,6-tetrahydro-2H-[1,2′]bipyrazinyl-3-carboxylic acid 4-propyl-benzylamide]
pIC50 [1]: > 7.00 | pIC50 [2]: > 7.00

CC(C)(C)c1ccc(CNC(=O)[C@H]2CN(c3cnc(CO)cn3)CCN2S(=O)(=O)c2ccc(OC(F)(F)F)cc2)cc1 [Example 545, (R)-5′-hydroxymethyl-4-(4-trifluoromethoxy-benzenesulfonyl)-3,4,5,6-tetrahydro-2H-[1,2′]bipyrazinyl-3-carboxylic acid 4-tert-butyl-benzylamide]
pIC50 [1]: > 7.00 | pIC50 [2]: > 7.00

CCCc1ccc(CNC(=O)[C@H]2CN(c3ccc(O)nn3)CCN2S(=O)(=O)c2ccc(OC(F)(F)F)cc2)cc1 [Example 546, (R)-4-(6-hydroxy-pyridazin-3-yl)-1-(4-trifluoromethoxy-benzenesulfonyl)-piperazine-2-carboxylic acid 4-propyl-benzylamide]
pIC50 [1]: > 7.00 | pIC50 [2]: > 7.00

CCCc1ccc(CNC(=O)[C@H]2CN(c3ccc(C(N)=O)nn3)CCN2S(=O)(=O)c2ccc(OC(F)(F)F)cc2)cc1 [Example 547, 6-[(R)-3-(4-propyl-benzylcarbamoyl)-4-(4-trifluoromethoxy-benzenesulfonyl)-piperazin-1-yl]-pyridazine-3-carboxylic acid amide]
pIC50 [1]: > 7.00 | pIC50 [2]: > 7.00

CCCc1ccc(CNC(=O)[C@H]2CN(c3nc4c(s3)CN(C)CC4)CCN2S(=O)(=O)c2ccc(OC(F)(F)F)cc2)cc1 [Example 548, (R)-4-(5-methyl-4,5,6,7-tetrahydro-thiazolo[5,4-c]pyridin-2-yl)-1-(4-trifluoromethoxy-benzenesulfonyl)-piperazine-2-carboxylic acid 4-propyl-benzylamide]
pIC50 [1]: > 7.00 | pIC50 [2]: > 7.00

CCCc1ccc(CNC(=O)[C@H]2CN(c3cnc(CO)c(N)n3)CCN2S(=O)(=O)c2ccc(OC(F)(F)F)cc2)cc1 [Example 549, (R)-6′-amino-5′-hydroxymethyl-4-(4-trifluoromethoxy-benzenesulfonyl)-3,4,5,6-tetrahydro-2H-[1,2′]bipyrazinyl-3-carboxylic acid 4-propyl-benzylamide]
pIC50 [1]: > 7.00 | pIC50 [2]: > 7.00

CC(=O)N1CCN(S(=O)(=O)c2ccc(OC(F)(F)F)cc2)[C@@H](C(=O)NCc2ccc(C(F)(F)C(F)(F)F)cc2)C1 [Example 550, (R)-4-acetyl-1-(4-trifluoromethoxy-benzenesulfonyl)-piperazine-2-carboxylic acid 4-pentafluoroethyl-benzylamide]
pIC50 [1]: 6.00 to 7.00 | pIC50 [2]: 6.00 to 7.00

Cc1nnn(CC(=O)N2CCN(S(=O)(=O)c3ccc(OC(F)(F)F)cc3)[C@@H](C(=O)NCc3ccc(C(F)(F)C(F)(F)F)cc3)C2)n1 [Example 551, (R)-4-[2-(5-methyl-tetrazol-2-yl)-acetyl]-1-(4-trifluoromethoxy-benzenesulfonyl)-piperazine-2-carboxylic acid 4-pentafluoroethyl-benzylamide]
pIC50 [1]: 6.00 to 7.00 | pIC50 [2]: 6.00 to 7.00
